Assay [1] can be described thus: QCM-D control with empty liposomes (Example 6). The note with it: empty liposomes immobilised on the QCM. The procedure: Gold (100 nm) sensor crystals were sonicated in ethanol and milli-Q water for 15 minutes each respectively. A 5:1:1 volume ratio of milli-Q water, ammonia (25%), and hydrogen peroxide (30%) was heated to 75° C. for 5 minutes and the sonicated crystals were placed in the heated solution for 5 minutes. Then the crystals were removed from the solution and rinsed with milli-Q water before drying with nitrogen gas. The clean gold crystals were thiol-functionalized by exposing them to 2 mM ethanolic solution of MHA overnight followed by washing with ethanol solution in order to remove excess or loosely bound molecules. The SAM functionalized crystals were then placed into the Q-sense analyser instrument (Biolin Scientific) chamber and flowed with the NHS/EDC, OR22a/liposomes and various concentrations of methyl hexanoate (1.6 μM, 8 μM, 40 μM, 200 μM and 1 mM) in PBS buffer solution to measure the changes in frequency (Δf) and dissipation (ΔD) values.

Assay [2] is described as follows: CNT-FET control covalently functionalized with empty nanodiscs (Example 3). The note with it: empty nanodiscs 1:100 dilution; increasing amounts of ligand. The procedure: The dispersion was sonicated until a clear solution was obtained. The temperature was kept at 25° C. throughout the sonication process. The thiolpyridine solution was prepared by dissolving 10 mg of 2-Mercaptopyridine (99%, Sigma Aldrich) in 1 ml of methanol. The solution was spun coated on a polydimethylsiloxane (PDMS) surface at 2000 rpm for one minute. Before the spin coating process, the PDMS surface was cleaned by a 50 W Oxygen plasma for 1 minute to improve the wettability. The cleaned substrates were placed upside down on the PDMS surface for three minutes and washed in ethanol to remove the excess thiolpyridine molecules. Then the substrates were transferred into the CNT suspension and immersed into the suspension for 10 minutes. The samples were removed from the suspension and dipped into Ethanol for another 10 minutes to remove the thiolpyridine molecules in the SWNT network. The alignment markers were deposited by defining the markers by photolithography and thermal evaporation of 5 nm Chromium and 50 nm of Gold. The metal Lift off was done by acetone immersion for 15 minutes followed by an Isopropyl alcohol (IPA) wash and N2 blow dry. The result is a uniform thin film CNT network covering the entire substrate surface. Nanodiscs were prepared using a protocol modified from Bayburt et al. 2010 and 2003^55, 56. Nanodiscs were formed at an MSP:protein:lipid ratio of 1:0.2:150. […]

Consider `CCCCCC(=O)OC` [methyl hexanoate], for which, in assay [1], the “increase in oscillation frequency” value is given as “not observed”. For the compound `COC(=O)c1ccccc1O` [methyl salicylate], the current response entry in assay [2] is reported as “no increase in current”.

The record behind these values is patent US12044651B2, “Sensor device and methods” (SCENTIAN BIO LIMITED, priority 2016, dated 2024).
